Key:
Format in all cases: functional
[1] = system: NCI-H322M; assay: Cytotoxicity against Homo sapiens (human) NCI-H322M cells after 48 hr by sulforhodamine B assay; details: for CC50: read-out: LC50 (the source's name)
[2] = system: PC-3; assay: Cytotoxicity against Homo sapiens (human) PC3 cells after 48 hr by sulforhodamine B assay; details: PC-3, 48 h
[3] = system: SK-MEL-28; assay: Cytotoxicity against Homo sapiens (human) SK-MEL-28 cells after 48 hr by sulforhodamine B assay; details: SK-MEL-28, 48 h
[4] = system: ACHN; assay: Cytotoxicity against Homo sapiens (human) ACHN cells after 48 hr by sulforhodamine B assay; details: for CC50: read-out: LC50 (the source's name)
[5] = system: HCT-15; assay: Cytotoxicity against Homo sapiens (human) HCT15 cells after 48 hr by sulforhodamine B assay; details: HCT-15, 48 h; for CC50: read-out: LC50 (the source's name)
[6] = system: SF-268; assay: Cytotoxicity against Homo sapiens (human) SF268 cells assessed as cell growth at 10^-4 M after 48 hr by […] assay; details: SF-268, 48 h, read-out: Activity
[7] = system: NCI-H460; assay: Cytotoxicity against Homo sapiens (human) NCI-H460 cells after 48 hr by sulforhodamine B assay; details: NCI-H460, 48 h; for CC50: read-out: LC50 (the source's name)
[8] = system: CCRF-CEM; assay: Cytotoxicity against Homo sapiens (human) CCRF-CEM cells after 48 hr by sulforhodamine B assay; details: for CC50: read-out: LC50 (the source's name)
[9] = system: NCI-H460; assay: Cytotoxicity against Homo sapiens (human) NCI-H460 cells assessed as cell growth at 10^-4 M after 48 hr by Alamar blue assay; details: NCI-H460, 48 h, read-out: Activity
[10] = system: COLO 205; assay: Cytotoxicity against Homo sapiens (human) COLO205 cells after 48 hr by sulforhodamine B assay; details: COLO 205, 48 h; for CC50: read-out: LC50 (the source's name)
[11] = system: Hs-578T; assay: Cytotoxicity against Homo sapiens (human) Hs 578T cells after 48 hr by sulforhodamine B assay
[12] = system: U-251; assay: Cytotoxicity against Homo sapiens (human) U251 cells after 48 hr by sulforhodamine B assay; details: U-251, 48 h
[13] = system: 786-0; assay: Cytotoxicity against Homo sapiens (human) 786-0 cells after 48 hr by sulforhodamine B assay; details: 786-0, 48 h
[14] = system: NCI-H522; assay: Cytotoxicity against Homo sapiens (human) NCI-H522 cells after 48 hr by sulforhodamine B assay; details: NCI-H522, 48 h; for CC50: read-out: LC50 (the source's name)
[15] = system: UO-31; assay: Cytotoxicity against Homo sapiens (human) UO31 cells after 48 hr by sulforhodamine B assay; details: UO-31, 48 h
[16] = system: BT-549; assay: Cytotoxicity against Homo sapiens (human) BT549 cells after 48 hr by sulforhodamine B assay; details: BT-549, 48 h
[17] = system: MCF7; assay: Cytotoxicity against Homo sapiens (human) MCF7 cells after 48 hr by sulforhodamine B assay; details: MCF7, 48 h
[18] = system: UACC-62; assay: Cytotoxicity against Homo sapiens (human) UACC62 cells after 48 hr by sulforhodamine B assay; details: UACC-62, 48 h
[19] = system: NCI-H23; assay: Cytotoxicity against Homo sapiens (human) NCI-H23 cells after 48 hr by sulforhodamine B assay; details: NCI-H23, 48 h; for CC50: read-out: LC50 (the source's name)
[20] = Cytotoxicity against Homo sapiens (human) NCI-ADR-RES cells after 48 hr by sulforhodamine B assay
[21] = system: NCI-H226; assay: Cytotoxicity against Homo sapiens (human) NCI-H226 cells after 48 hr by sulforhodamine B assay; details: NCI-H226, 48 h; for CC50: read-out: LC50 (the source's name)
[22] = system: SF-268; assay: Cytotoxicity against Homo sapiens (human) SF268 cells after 48 hr by sulforhodamine B assay; details: SF-268, 48 h; for CC50: read-out: LC50 (the source's name)
[23] = system: HOP-62; assay: Cytotoxicity against Homo sapiens (human) HOP62 cells after 48 hr by sulforhodamine B assay; details: HOP-62, 48 h; for CC50: read-out: LC50 (the source's name)
[24] = system: MDA-MB-231; assay: Cytotoxicity against Homo sapiens (human) MDA-MB-231 cells after 48 hr by sulforhodamine B assay; details: MDA-MB-231, 48 h
[25] = system: HOP-92; assay: Cytotoxicity against Homo sapiens (human) HOP92 cells after 48 hr by sulforhodamine B assay; details: HOP-92, 48 h
[26] = system: KM12; assay: Cytotoxicity against Homo sapiens (human) KM12 cells after 48 hr by sulforhodamine B assay; details: KM12, 48 h; for CC50: read-out: LC50 (the source's name)
[27] = system: SN12C; assay: Cytotoxicity against Homo sapiens (human) SN12C cells after 48 hr by sulforhodamine B assay
[28] = system: MOLT-4; assay: Cytotoxicity against Homo sapiens (human) MOLT4 cells after 48 hr by sulforhodamine B assay; details: MOLT-4, 48 h; for CC50: read-out: LC50 (the source's name)
[29] = system: T47D; assay: Cytotoxicity against Homo sapiens (human) T47D cells after 48 hr by sulforhodamine B assay
[30] = system: MDA-MB-435; assay: Cytotoxicity against Homo sapiens (human) MDA-MB-435 cells after 48 hr by sulforhodamine B assay; details: MDA-MB-435, 48 h
[31] = system: SK-OV-3; assay: Cytotoxicity against Homo sapiens (human) SKOV3 cells after 48 hr by sulforhodamine B assay; details: SK-OV-3, 48 h
[32] = system: RXF 393; assay: Cytotoxicity against Homo sapiens (human) RXF393 cells after 48 hr by sulforhodamine B assay; details: RXF 393, 48 h

## Nc1nc(Cl)c2ncn(Cc3cccc(CCl)c3)c2n1
[1]
  GI50: 10.5 µM
  TGI: 22.4 µM
  CC50: 46.8 µM
[2]
  GI50: 9.77 µM
  LC50 (concentration causing 50% cell kill): 63.1 µM
  TGI: 25.1 µM
[3]
  GI50: 4.46 µM
  LC50 (concentration killing 50% of cells): 74.1 µM
  TGI: 19.1 µM
[4]
  GI50: 2.88 µM
  TGI: 8.71 µM
  CC50: 29.5 µM
[5]
  GI50: 2.51 µM
  TGI: 6.76 µM
  CC50: 33.1 µM
[6]
  growth at 100 µM: 0%
[7]
  GI50: 4.26 µM
  TGI: 15.8 µM
  CC50: 47.9 µM
[8]
  GI50: 3.02 µM
  TGI: > 100 µM
  CC50: > 100 µM
[9]
  growth at 100 µM: 0%
[10]
  GI50: 6.76 µM
  TGI: 27.5 µM
  CC50: 97.7 µM
[11]
  GI50: 11.5 µM
  LC50: > 100 µM
  TGI: 60.2 µM
[12]
  GI50: 1.82 µM
  LC50 (concentration killing 50% of cells): 9.33 µM
  TGI: 4.07 µM
[13]
  GI50: 6.6 µM
  LC50: 91.2 µM
  TGI: 26.3 µM
[14]
  GI50: 3.31 µM
  TGI: 13.5 µM
  CC50: 81.3 µM
[15]
  GI50: 13.5 µM
  LC50 (concentration causing 50% net cell kill): 77.6 µM
  TGI: 32.4 µM
[16]
  GI50: 4.07 µM
  LC50 (50% lethal concentration): 58.9 µM
  TGI: 17.4 µM
[17]
  GI50: 2.39 µM
  LC50 (concentration killing 50% of cells): 53.7 µM
  TGI: 9.55 µM
[18]
  GI50: 2.09 µM
  LC50 (concentration causing 50% net cell kill): 13.5 µM
  TGI: 4.78 µM
[19]
  GI50: 2.04 µM
  TGI: 5.01 µM
  CC50: 26.9 µM
[20]
  GI50: 4.89 µM
  LC50 (concentration killing 50% of cells): 75.9 µM
  TGI: 19.9 µM
[21]
  GI50: 10.7 µM
  TGI: 42.6 µM
  CC50: > 100 µM
[22]
  GI50: 3.02 µM
  TGI: 10.2 µM
  CC50: 67.6 µM
[23]
  GI50: 5.75 µM
  TGI: 20.4 µM
  CC50: 58.9 µM
[24]
  GI50: 12 µM
  LC50: 69.2 µM
  TGI: 28.8 µM
[25]
  GI50: 0.63 µM
  TGI: 38 µM
[25]; read-out: LC50 (the source's name)
  CC50: > 100 µM
[26]
  GI50: 3.31 µM
  TGI: 13.2 µM
  CC50: 37.1 µM
[27]
  GI50: 4.46 µM
  LC50 (50% lethal concentration): 39.8 µM
  TGI: 15.5 µM
[28]
  GI50: 4.78 µM
  TGI: > 100 µM
  CC50: > 100 µM
[29]
  GI50: 6.02 µM
  LC50: > 100 µM
  TGI: 37.1 µM
[30]
  GI50: 3.81 µM
  LC50: 85.1 µM
  TGI: 22.4 µM
[31]
  GI50: 24 µM
  LC50: > 100 µM
  TGI: 67.6 µM

## ClCc1ccc(Cn2cnc3nc(Cl)nc(Cl)c32)cc1
[1]
  GI50: 0.67 µM
  TGI: 1.9 µM
  CC50: 4.46 µM
[2]
  GI50: 17.8 µM
  LC50 (concentration causing 50% cell kill): 75.9 µM
  TGI: 37.1 µM
[3]
  GI50: 2.18 µM
  LC50 (concentration killing 50% of cells): > 100 µM
  TGI: 5.12 µM
[4]
  GI50: 1.9 µM
  TGI: 3.31 µM
  CC50: 5.75 µM
[5]
  GI50: 1.81 µM
  TGI: 3.54 µM
  CC50: 6.76 µM
[6]
  growth at 100 µM: 0%
[7]
  GI50: 15.5 µM
  TGI: 35.5 µM
  CC50: 79.4 µM
[8]
  GI50: 14.8 µM
  TGI: 31.6 µM
  CC50: 66.1 µM
[9]
  growth at 100 µM: 0%
[10]
  GI50: 17.4 µM
  TGI: > 100 µM
  CC50: > 100 µM
[11]
  GI50: 19.1 µM
  LC50: > 100 µM
  TGI: 44.7 µM
[12]
  GI50: 1.77 µM
  LC50 (concentration killing 50% of cells): 5.75 µM
  TGI: 3.23 µM
[13]
  GI50: 1.9 µM
  LC50: 7.41 µM
  TGI: 3.71 µM
[14]
  GI50: 1.77 µM
  TGI: 4.57 µM
  CC50: 38 µM
[15]
  GI50: 1.44 µM
  LC50 (concentration causing 50% net cell kill): 5.62 µM
  TGI: 2.88 µM
[16]
  GI50: 1.86 µM
  LC50 (50% lethal concentration): 6.45 µM
  TGI: 3.46 µM
[17]
  GI50: 4.16 µM
  LC50 (concentration killing 50% of cells): 83.2 µM
  TGI: 17 µM
[18]
  GI50: 1.65 µM
  LC50 (concentration causing 50% net cell kill): 6.02 µM
  TGI: 3.16 µM
[19]
  GI50: 2.34 µM
  TGI: 4.57 µM
  CC50: 8.91 µM
[20]
  GI50: 2.08 µM
  TGI: 4.46 µM
[21]
  GI50: 1.23 µM
  TGI: 3.89 µM
  CC50: 15.5 µM
[22]
  GI50: 1.99 µM
  TGI: 3.98 µM
  CC50: 7.94 µM
[23]
  GI50: 1.9 µM
  TGI: 3.89 µM
  CC50: 7.94 µM
[24]
  GI50: 1.62 µM
  LC50: 6.02 µM
  TGI: 3.09 µM
[26]
  GI50: 0.26 µM
  TGI: 0.67 µM
  CC50: 2.45 µM
[32]
  GI50: 1.65 µM
  TGI: 3.98 µM
[27]
  GI50: 1.86 µM
  LC50 (50% lethal concentration): 6.6 µM
  TGI: 3.46 µM
[28]
  GI50: 1.38 µM
  TGI: 5.49 µM
  CC50: > 100 µM
[29]
  GI50: 10.2 µM
  LC50: > 100 µM
  TGI: 46.8 µM
[30]
  GI50: 1.62 µM
  LC50: 5.75 µM
  TGI: 3.01 µM
[31]
  GI50: 2.34 µM
  LC50: 18.2 µM
  TGI: 5.01 µM

Reference: ChEMBL document CHEMBL3044672, “N9- and N7-(Chloromethyl Phenymethyl)Chloropurine Derivatives from , '-Dichloroxylenes: Synthesis and Anticancer Activity” (2005)
